Laboratory results as given in US20260242428A1, “POLYETHYLENIMINE-MODIFIED CRY PROTEINS AND THEIR USE” (priority 2024, published 2026).

Legend:
[1] = tested on: 3A-FDH/3A-LDH particles, unmodified (co-immobilized Cry3Aa-formate dehydrogenase and Cry3Aa-leucine dehydrogenase); test: NADH binding capacity of 3A-FDH/3A-LDH particles without PEI; conditions: absorbance at 340 nm
[2] = molecular target: T1, PEI-modified Cry3Aa (3A-PEI) crystals; Cry3Aa, SEQ ID NO: 4 (Bacillus thuringiensis subsp. tenebrionis, UniProt P0A379, F640R/R158P); test: Cofactor binding capacity of 3A-PEI crystals; conditions: 0.25 mM cofactor, 20 μg crystals, 10° C., 30 min
T1 construct: made in house; host or cells: Bacillus thuringiensis B7407G
Experimental: To compare the binding capacity of 3A-PEI crystals with Cry3Aa and Pos3Aa crystals, the same experiment was conducted as the control.
To evaluate whether 3A-PEI crystals could binding to other phosphorylated cofactors, PLP, NAD^+, NADP^+, NADPH, FADH2, CoA, Riboflavin, and TPP (each at a concentration of 0.25 mM) were incubated with 20 μg of 3A-PEI crystals for 30 min under slow rotation at 10° C. Subsequently, the crystals were centrifugated and the amount of bound cofactor within the crystals was quantified.

[3] = molecular target: T2, PEI-modified CadA-Cry1Ab fusion particles (E. coli lysine decarboxylase CadA, NP_418555, fused to Cry1Ab) (Escherichia coli, UniProt P0A9H3); test: PLP binding capacity of PEI-CadA-Cry1Ab particles
T2 construct: made in house; host or cells: E. coli BL21(DE3)
Experimental: For binding analysis, PEI-CadA-Cry1Ab fusion particles (50 μg/mL) were incubated with increasing concentrations of PLP (0-2 mM) for 25 min under gentle rotation at room temperature. After incubation, the particles were centrifuged at 8000 rpm for 10 min, and the unbound PLP in the supernatant was quantified. A calibration curve, generated from PLP standards treated under identical conditions, was used to determine the amount of PLP bound to the particles. To stabilize the absorbance peak of PLP following Schiff base formation with the protein, 1 M HCl was added to the unbound PLP supernatants in a 1:1 (v/v) ratio. After a 5-minute incubation, the absorbance of the unbound PLP was measured at 294 nm using an Eppendorf Bio-Spectrometer (Eppendorf AG. Germany). The PLP concentration was determined using a standard curve generated for various PLP amounts treated with 1M HCL based on the Beer-Lambert law.

[4] = molecular target: T3, CadA-Cry1Ab fusion particles, unmodified (E. coli lysine decarboxylase CadA, NP_418555, fused to Cry1Ab) (Escherichia coli, UniProt P0A9H3); test: PLP binding capacity of unmodified CadA-Cry1Ab particles; conditions: before PEI modification
T3 construct: made in house; host or cells: E. coli BL21(DE3)

Row | SMILES | NADH retained [1] | binding affinity (binding capacity of cofactor) [2] | PLP binding capacity ([3]; PLP 0-2 mM, 25 min, room temperature) | PLP binding capacity enhancement by PEI modification ([3]; vs unmodified CadA-Cry1Ab) | PLP binding capacity [4]
1 | NC(=O)C1=CN([C@@H]2O[C@H](COP(=O)(O)OP(=O)(O)OC[C@H]3O[C@@H](n4cnc5c(N)ncnc54)[C@H](O)[C@@H]3O)[C@@H](O)[C@H]2O)C=CC1 [NADH, nicotinamide adenine dinucleotide] | ~ 4.2±0.3 μmol NADH per g |  |  |  | 
2 | Cc1ncc(C[n+]2csc(CCOP(=O)(O)OP(=O)(O)O)c2C)c(N)n1 [TPP] |  | 160±1 μmol/g of support |  |  | 
3 | Cc1ncc(COP(=O)(O)O)c(C=O)c1O [PLP, Pyridoxal 5′-phosphate] |  | 650±2 μmol/g of support | ~ 1300 μmol/g | 13 fold | ~ 100 μmol/g
